Results reported in US20250066323A1, “INHIBITORS OF HUMAN RESPIRATORY SYNCYTIAL VIRUS AND METAPNEUMOVIRUS” (priority 2023, published 2025).
Where two headings read alike, the source gives them in different places.

Tested on: RSV-A2-GFP
Assay: RSV-A2-GFP viral replication assay
Assay type: cell-based, Human Respiratory Syncytial Virus
Text: GFP sequence was derived from pJTI™ R4 Dest CMV N-EmGFP pA Vector (Invitrogen) and was cloned into the intergenic sequence between wild-type RSV-A2 P and M genes using standard recombineering techniques. Recombinant RSV-A2-GFP was propagated in Hep2 cells (human cells contains HeLa marker chromosomes and were derived via HeLa contamination, ATCC CCL-23) with infection Multiplicity of Infection (MOI) of 0.1. Virus was harvested 3 days after infection by collecting all culture material and freeze-thaw the viral culture in liquid nitrogen for at least 5 times. To generating virus working stocks, thaw frozen samples in 37° C. water bath then centrifuge at 218 g for 15 min at 4° C. Add 1/10 of 10×SPG (Biological Industries 06-3061-01-5A), mix, aliquot supernatant, and quick-freeze in liquid nitrogen then transfer to −80° C. freezer for storage. Virus titer was determined by automated plaque assay in HEp-2 cells following methods described previously (Wen Z. et al.; J Virol Methods. 2019 January; 263:88-95).
Calu-1 cells (human lung epidermoid carcinoma, ATCC HTB-54) assay ready freezedown (ARF generation described separately) were used in assays. Compound plates were prepared by dispensing compounds dissolved in DMSO into wells of 384 well coming 3985 polystyrene flat clear bottom optical imaging microplates (202.5 nL/well) using an ECHO acoustic dispenser. Each compound was tested in a 10-point serial 3-fold dilution (typical final concentrations: 403 nM-0.02 nM and 40.3 nM-0.002 nM). […] To set up the assay, thaw ARF vial(s) in 37° C. water bath until small ice crystal remain and resuspend into assay media (DMEM containing 2% FBS, 100 U/ml Penicillin-Streptomycin). Count cells using default parameters on ViCell and dilute to 20,000 cells per ml in assay media. Add RSV GFP to cells at 24,000 pfu/ml (MOI=1.2). Mix by gentle inversion. 10 μl/well of 100% DMSO was dispensed to CellTiter-Glo (CTG) assay Max_E controls wells. Dispense cells at 50 μl/well using Bravo and 50 μl filtered tips into compound plates. Cover plates with MicroClime lids loaded with 7.5 ml of assay media to minimize evaporation. Incubate at 37 degrees C. and 5% CO2 for 96 hrs. Following incubation, distinct, GFP-expressing cells are counted using an Acumen imaging system with appropriate settings. A same-well CTG assay is performed by adding 10 μl/well reconstituted CellTiter-Glo reagent (Promega G7573) and reading plates on PerkinElmer Envision according to manufacturer's instructions. Raw data were loaded and analyzed in ActivityBase. Antiviral IC50 and cytotoxicity CC50 values were determined using a 4 parameter logistic fit based on the Levenberg-Marquardt algorithm. Model: 205-4 Parameter Logistic.
Calu-1 cells were purchased from ATCC (Cat #HTB-54) and are expanded in growth media (DMEM containing 10% FBS, 100 U/ml Penicillin-Streptomycin). To make ARF, remove and discard cell culture media, briefly rinse the cell layer with PBS to remove all traces of serum. Add 2.5 ml of TrypLE Express solution and incubate until cells dislodge, then add growth media and resuspend the cells by gentle pipetting. Count cells for concentration and determine viability using a ViCell. Centrifuge at RT, 300 g for 5 min to pellet cells. Gently aspirate supernatant, flick pellet to loosen cells. Resuspend cells in an appropriate volume of freezing medium (DMEM containing 10% DMSO, 10% FBS, 100 U/ml Penicillin-Streptomycin) to achieve 5×10^6/ml. Transfer 1 ml of cell suspension to freezing vials. Put vials to CoolCell cryopreservation container and place CoolCell container upright in a −80° C. freezer overnight before transferring vials to liquid nitrogen vapor for storage.

[1] = read-out: RSV EC50, Calu-1 cells, RSV-A2-GFP MOI=1.2, 96 hrs, GFP-expressing cells counted

SMILES | EC50 [1] [nM] | EC50 (human respiratory syncytial virus, Calu-1, 96 h, read-out: RSV EC50, Calu-1 cells, RSV-A2-GFP MOI=1.2, 96 hrs, GFP-expressing cells counted) [nM]
Cn1nc(-n2cccn2)cc1C(=O)NCC(C)(O)c1cc2c(c(-c3ccc(F)cc3)n1)OCC2(C)C(N)=O (single isomer, unassigned) [Example 29-A, 7-(4-fluorophenyl)-5-(2-hydroxy-1-(1′-methyl-1′H-[1,3′-bipyrazole]-5′-carboxamido)propan-2-yl)-3-methyl-2,3-dihydrofuro[2,3-c]pyridine-3-carboxamide] | 10 to 100 | –
Cn1nc(-n2cccn2)cc1C(=O)NCC(C)(O)c1cc2c(c(-c3ccc(F)cc3)n1)OCC2(C)C(N)=O (single isomer, unassigned) [Example 29-B, 7-(4-fluorophenyl)-5-(2-hydroxy-1-(1′-methyl-1′H-[1,3′-bipyrazole]-5′-carboxamido)propan-2-yl)-3-methyl-2,3-dihydrofuro[2,3-c]pyridine-3-carboxamide] | > 100 | –
Cn1nc(-n2cccn2)cc1C(=O)NCC(C)(O)c1cc2c(c(-c3ccc(F)cc3)n1)OCC2(C)C(N)=O (single isomer, unassigned) [Example 29-C, 7-(4-fluorophenyl)-5-(2-hydroxy-1-(1′-methyl-1′H-[1,3′-bipyrazole]-5′-carboxamido)propan-2-yl)-3-methyl-2,3-dihydrofuro[2,3-c]pyridine-3-carboxamide] | < 10 | –
Cn1nc(-n2cccn2)cc1C(=O)NCC(C)(O)c1cc2c(c(-c3ccc(F)cc3)n1)OCC2(C)C(N)=O (single isomer, unassigned) [Example 29-D, 7-(4-fluorophenyl)-5-(2-hydroxy-1-(1′-methyl-1′H-[1,3′-bipyrazole]-5′-carboxamido)propan-2-yl)-3-methyl-2,3-dihydrofuro[2,3-c]pyridine-3-carboxamide] | 10 to 100 | –
Cn1nc(-c2cscn2)cc1C(=O)NCC(O)(c1cc2c(c(-c3ccc(F)cc3)n1)OCC2(C)C(N)=O)C(F)(F)F (single isomer, unassigned) [Example 30-B, 7-(4-fluorophenyl)-3-methyl-5-(1,1,1-trifluoro-2-hydroxy-3-(1-methyl-3-(thiazol-4-yl)-1H-pyrazole-5-carboxamido)propan-2-yl)-2,3-dihydrofuro[2,3-c]pyridine-3-carboxamide] | – | < 10
Cn1nc(-c2cscn2)cc1C(=O)NCC(C)(O)c1cc(C(C)(C)C(N)=O)cc(-c2ccc(F)cc2)n1 (single isomer, unassigned) [Example 31-A, N-(2-(4-(1-amino-2-methyl-1-oxopropan-2-yl)-6-(4-fluorophenyl)pyridin-2-yl)-2-hydroxypropyl)-1-methyl-3-(thiazol-4-yl)-1H-pyrazole-5-carboxamide] | > 100 | –
Cn1nc(-c2cscn2)cc1C(=O)NCC(C)(O)c1cc(C(C)(C)C(N)=O)cc(-c2ccc(F)cc2)n1 (single isomer, unassigned) [Example 31-B, N-(2-(4-(1-amino-2-methyl-1-oxopropan-2-yl)-6-(4-fluorophenyl)pyridin-2-yl)-2-hydroxypropyl)-1-methyl-3-(thiazol-4-yl)-1H-pyrazole-5-carboxamide] | < 10 | –
Cn1nc(-c2cscn2)cc1C(=O)NCC(C)(O)c1cc(C(C)(C)O)cc(-c2ccc(F)cc2)n1 (single isomer, unassigned) [Example 32-A, N-(2-(6-(4-fluorophenyl)-4-(2-hydroxypropan-2-yl)pyridin-2-yl)-2-hydroxypropyl)-1-methyl-3-(thiazol-4-yl)-1H-pyrazole-5-carboxamide] | > 100 | –
Cn1nc(-c2cscn2)cc1C(=O)NCC(C)(O)c1cc(C(C)(C)O)cc(-c2ccc(F)cc2)n1 (single isomer, unassigned) [Example 32-B, N-(2-(6-(4-fluorophenyl)-4-(2-hydroxypropan-2-yl)pyridin-2-yl)-2-hydroxypropyl)-1-methyl-3-(thiazol-4-yl)-1H-pyrazole-5-carboxamide] | < 10 | –
CC(N)C(C)(C)c1cc(-c2ccc(F)cc2)nc(C(C)(O)CNC(=O)c2cc(-n3cccn3)nn2C)c1 (single isomer, unassigned) [Example 33-A, N-(2-(4-(3-amino-2-methylbutan-2-yl)-6-(4-fluorophenyl)pyridin-2-yl)-2-hydroxypropyl)-1′-methyl-1′H-[1,3′-bipyrazole]-5′-carboxamide] | > 100 | –
